Where two headings read alike, the source gives them in different places.
Tests used:
[1] = target: T1, CDK5/p25 (Homo sapiens, UniProt Q00535); test: CDK5/p25 kinase assay ([γ-33P] ATP, histone H1); type: biochemical
T1 construct: made in house
Protocol: (§1) CDK1/cyclin B (M phase starfish oocytes, native), CDK2/cyclin A (human, recombinant) and CDK5/p25 (human, recombinant) were prepared as previously described. […] ATP (3000 Ci/mmol; 10 mCi/mL) in a final volume of 30 µL. After 30 min incubation at 30 °C, 25 µL aliquots of supernatant were spotted onto 2.5 cm × 3 cm pieces of Whatman P81 phosphocellulose paper, and, 20 s later, the filters were washed five times (for at least 5 min each time) in a solution of 10 mL of phosphoric acid/liter of water. The wet filters were counted in the presence of 1 mL of ACS (Amersham, Pittsburgh, PA, USA) scintillation fluid.

[2] = tested on: Pf3D7; test: [3H]hypoxanthine incorporation growth assay, Pf3D7; type: cell-based, Plasmodium falciparum; conditions: for IC50: Plasmodium falciparum
Protocol: (§2) A selection of 15 molecules 4b–c, 10–13 representing the different 2,6,9-trisubstituted purine series, including newly synthesized products was screened as anti-malarial agents on two different P. falciparum strains, Pf3D7, a standard drug-sensitive African stain, and Pf7G8, a brazilian chloroquino-resistant strain (Figure 3). The compound activity was evaluated during the parasitic erythocytic cycle, by the means of a [^3H] hypoxanthine incorporation assay. It is directly correlated to parasite viability, as described in the experimental section.
(§3) At first, the activity of the fifteen compounds was screened at three different concentrations (10, 50 and 100 µM) on Pf3D7. Chloroquine which is not a kinase inhibitor, but which is the antimalarial reference drug was used as the positive control. […] Chloroquine was again used as a positive control.
(§4) Compounds were tested against synchronous ring-stage parasites of Pf3D7 and Pf7G8 strains. Drugs testing were carried out in 96-well microtiter plates. The chloroquine (CQ) diphosphate was purchased from Sigma (Lyon, France). […] For each assay, each drug dilution was analyzed in triplicate.
(§5) For the in vitro isotopic microtest, 200 µL of the suspension of synchronous parasitized red blood cells with >90% of the parasites at the ring stage (final parasitaemia, 0.3%; final haematocrit, 4%) per well were plated in 96-well plates that contained serial CQ or compounds concentrations. […] The plates were incubated at 37 °C, in an atmosphere of 5% O2, 5% CO2, and 90% N2 for 48 h. Immediately after incubation, plates were frozen and then thawed to lyse the erythrocytes. Cultures were harvested onto glass fiber filters and washed using a cell harvester (FilterMAT; Skatron Instruments, Dalsletta, Norway). The dried fiber filter papers were mixed with 2 mL of scintillation fluid (OptiScint; Perkin-Elmer, Waltham, UK). […] The initial value and the asymptotic result for high concentrations were fixed to 0% and 100%, respectively, available on the web.

[3] = tested on: Pf7G8; test: [3H]hypoxanthine incorporation growth assay, Pf7G8; type: cell-based, Plasmodium falciparum; conditions: for IC50: Plasmodium falciparum
Protocol: as §2, §3, §4, §5

[4] = tested on: CDK1/cyclin B; set-up: method as in PMID 18698753; conditions: previously reported; cited from earlier work
[5] = target: CDK1/cyclin B; test: CDK1/cyclin B kinase assay ([γ-33P] ATP, histone H1); type: biochemical, starfish; conditions: Table A1; read-out: IC50 on HsCDKs HsCDK1
[6] = tested on: CK1δ/ε; set-up: method as in PMID 18698753; conditions: previously reported; read-out: IC50 CK1; cited from earlier work
[7] = set-up: method as in PMID 12809528; conditions: cited from earlier work
[8] = tested on: DYRK1A; set-up: method as in PMID 17850214; conditions: at 1 µM; cited from earlier work
[9] = target: T2, CDK2/cyclin A (Homo sapiens, UniProt P24941); test: CDK2/cyclin A kinase assay ([γ-33P] ATP, histone H1); type: biochemical; conditions: 15 µM ATP, Table 1
T2 construct: made in house
Protocol: as §1

[10] = target: DYRK1A (Homo sapiens, UniProt Q13627); test: DYRK1A kinase assay (Woodtide); type: biochemical; conditions: 15 µM ATP; Table 1
[11] = target: CK1δ/ε; test: CK1δ/ε kinase assay (CKS peptide); conditions: read-out: IC50 CK1δ/ε; 15 µM ATP; Table 1
Protocol: (§6) The effects on CDK1/cyclin B, CDK2/cyclin A, CDK5/p25, GSK-3αβ, CK1δ/ε and DYRK1A kinase activity are reported as the IC50 values calculated from dose-response curves. The inhibition was determined covering a range of concentrations of the compounds by means of a [γ-^33P] assay as described in the experimental section.
(§7) Controls were performed with appropriate dilutions of DMSO.

[12] = target: GSK-3α/β; test: GSK-3α/β kinase assay (GS-1 peptide); conditions: read-out: IC50 GSK-3αβ; 15 µM ATP; Table 1; >10 = no activity at 10 µM
Protocol: as §6, §7
GSK-3α/β (porcine brain, native) was assayed, as described for CDK1 but in Buffer A and using a GSK-3 specific substrate (GS-1: [sequence]pEDEEE) (pS stands for phosphorylated serine).

[13] = target: CDK1/cyclin B; test: CDK1/cyclin B kinase assay ([γ-33P] ATP, histone H1); type: biochemical, starfish; conditions: 15 µM ATP, Table 1
Protocol: as §1

[14] = Table A1, read-out: IC50 on HsCDKs HsCDK5
[15] = 48 h, drug-sensitive strain, 48 h, Table 2, read-out: Growth IC50 Pf3D7
[16] = Table A1, N.I. = not inhibitor, read-out: IC50 on P. falciparum Strains Pf3D7
[17] = Table A1, N.I. = not inhibitor, read-out: IC50 on P. falciparum Strains Pf7G8
[18] = chloroquino-resistant strain, 48 h, Table 2, read-out: Growth IC50 Pf7G8
[19] = CDK5/p25, 15 µM ATP, Table 1, read-out: IC50 CDK5

T1 sequence (Q00535 whole entry): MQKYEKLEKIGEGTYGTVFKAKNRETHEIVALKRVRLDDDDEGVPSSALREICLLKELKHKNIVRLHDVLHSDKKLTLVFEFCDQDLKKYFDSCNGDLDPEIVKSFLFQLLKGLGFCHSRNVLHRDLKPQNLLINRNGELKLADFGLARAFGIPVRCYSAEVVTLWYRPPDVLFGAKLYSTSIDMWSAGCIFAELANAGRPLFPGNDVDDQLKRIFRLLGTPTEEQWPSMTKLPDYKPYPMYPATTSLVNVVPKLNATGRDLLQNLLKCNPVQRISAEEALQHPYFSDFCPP
T1 sequence (Q15078 99-307 partner limits assumed): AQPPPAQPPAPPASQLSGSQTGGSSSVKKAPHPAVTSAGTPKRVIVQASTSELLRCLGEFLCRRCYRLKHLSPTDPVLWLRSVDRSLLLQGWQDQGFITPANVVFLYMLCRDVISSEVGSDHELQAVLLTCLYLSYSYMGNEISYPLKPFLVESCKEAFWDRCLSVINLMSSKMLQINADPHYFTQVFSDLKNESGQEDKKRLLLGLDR

Structure (SMILES)	IC50 [1, 14]	IC50 [2, 15]	IC50 [2, 16]	IC50 [3, 17]	IC50 [3, 18]	IC50 [5]	IC50 [11]	IC50 [12]	IC50 on P. falciparum Strains Pf3D7 ([2]; Table A1, N.I. = not inhibitor)	IC50 on P. falciparum Strains Pf7G8 ([3]; Table A1, N.I. = not inhibitor)	other results
CC(C)n1cnc2c(Nc3ccc(Br)cc3)nc(-c3ccncc3)nc21 [Compound 22]	0.6 µM	1.39 µM	1.39 µM	0.99 µM	0.99 µM	0.6 µM					IC50 [4]: 0.59 µM; IC50 [6]: 0.08 µM
CC[C@H](CO)Nc1nc(NCc2ccccc2)c2ncn(C(C)C)c2n1 [Compound 1, (R)-roscovitine]											maximal tolerated dose ([7]; human, daily oral dose): 2 g; oral bioavailability ([7]; humans, oral administration): good oral bioavailability; remaining DYRK1A kinase activity [8]: 87%
CC[C@@H](CO)Nc1nc(Nc2ccc(-c3ncccn3)cc2)c2ncn(C(C)C)c2n1 [Compound 19]	0.27 µM	7.13 µM	7.13 µM	1.82 µM	1.82 µM	0.5 µM					
CC(C)n1cnc2c(Nc3cnccn3)nc(Nc3cnccn3)nc21 [Compound 6]							1.1 µM	> 10 µM			IC50 [9]: 2.8 µM; IC50 [10]: 0.5 µM
CC[C@H](CO)Nc1nc(Nc2ccc(-c3ccccn3)cc2)c2ncn(C(C)C)c2n1 [Compound 14]	0.03 µM					0.05 µM			N.I.	N.I.	
CC(C)n1cnc2c(Nc3cccc(-c4cccnc4)c3)nc(Cl)nc21 [Compound 17]	0.05 µM					0.18 µM			N.I.	N.I.	
CC[C@@H](CO)Nc1nc(Nc2cccc(-c3ncccn3)c2)c2ncn(C(C)C)c2n1 [Compound 20]	0.5 µM	22.2 µM	22.2 µM	4.66 µM	4.66 µM	0.7 µM					
CC[C@@H](CO)Nc1nc(Nc2ccc(-c3cncnc3)cc2)c2ncn(C(C)C)c2n1 [Compound 16]	0.1 µM					0.18 µM			N.I.	N.I.	
CC(C)n1cnc2c(Nc3ccc(Br)cc3)nc(Nc3ncccn3)nc21 [Compound 4a]							1 µM	1 µM			IC50 [1, 19]: 1 µM; IC50 [10]: 3 µM
CC[C@@H](CO)Nc1nc(Nc2cccc(-c3ccccn3)c2)c2ncn(C(C)C)c2n1 [Compound 11, (S)-2-(1-Hydroxybut-2-ylamino)-6-[3-(2-pyridyl)phenylamino]-9-iso-propylpurine]		6.53 µM	6.53 µM	2.06 µM	2.06 µM	0.8 µM	0.04 µM	> 10 µM			IC50 [13]: 0.8 µM; IC50 [1, 19]: 0.4 µM
CC(C)n1cnc2c(Nc3cccnc3)nc(Nc3ncccn3)nc21 [Compound 4c]						3 µM	> 10 µM	> 10 µM	N.I.	N.I.	IC50 [13]: 3 µM; IC50 [9]: 1.8 µM; IC50 [1, 19]: 4.3 µM; IC50 [10]: 8 µM

— article PMC6271241, “Several Human Cyclin-Dependent Kinase Inhibitors, Structurally Related to Roscovitine, As New Anti-Malarial Agents” (Molecules, 2014)
